Source: article PMC5082894 (PLoS ONE, 2016)

How the values were obtained:
[1] = target: T1, YU2 gp120/CD4 complex binding to mAb 17b (co-receptor binding site) (Human immunodeficiency virus type 1 group M subtype B, UniProt P35961); set-up: species or system HIV-1; details: Fig 4F
T1 construct: purchased Immunodiagnostics (Massachusetts, USA)
Protocol: (§1) For that purpose, CM4 sensorchips were activated with 50 μL of 0.2 M N-ethyl-N’-([…])-carbodiimide (EDC) and 0.05 M N-hydroxy-succimide (NHS) at 5 μL/min. Then soluble CD4 (10 μg/mL in 10 mM acetate buffer, pH 5), streptavidin (200 μg/mL in 10 mM acetate buffer, pH 4.2), mAb 17b (5 μg/mL in 10 mM acetate buffer, pH 5), MN gp120 (50 μg/ml in 5 mM maleate buffer, pH 6) or YU2 gp120 (50μg/mL in 10 mM acetate buffer, pH 4.8) were injected at 5 μL/min over one of the EDC/NHS activated flow cell until levels of 1200 (for sCD4), 700 (for mAb 17b), 3000 (for streptavidin), or 4500 (for gp120s) response units (RU) were achieved. HS (1 mM in phosphate-buffered saline) was biotinylated through its reducing end by reductive amination with 10 mM of biotin-LC-Hydrazine (Pierce) and captured on the streptavidin surface (20 μg/mL in 10 mM Hepes buffer pH 7.4 and 0.3 M NaCl) to a level of 60–80 RU as described. Surfaces were then blocked with 1M ethanolamine (pH 8.5) for 5 minutes. […]
The specific binding responses in resonance unit (RU) for MN- (A) and YU2- (B) gp120 were recorded as a function of time (s). […] The specific binding responses in resonance unit (RU) for MN- (C, E) and YU2- (D, F) gp120 were recorded as a function of time (s), and after each injection, the surface was regenerated by a short pulse of 10 mM HCl. […]

[2] = target: T2, YU2 gp120 (R5-tropic) (Human immunodeficiency virus type 1 group M subtype B, UniProt P35961); assay type: binding, HIV-1; details: SPR, 0 to 25 μM injected
T2 construct: YU2 gp120 (50μg/mL in 10 mM acetate buffer, pH 4.8); purchased Immunodiagnostics (Massachusetts, USA)
Protocol: (§2) For that purpose, CM4 sensorchips were activated with 50 μL of 0.2 M N-ethyl-N’-([…])-carbodiimide (EDC) and 0.05 M N-hydroxy-succimide (NHS) at 5 μL/min. Then soluble CD4 (10 μg/mL in 10 mM acetate buffer, pH 5), streptavidin (200 μg/mL in 10 mM acetate buffer, pH 4.2), mAb 17b (5 μg/mL in 10 mM acetate buffer, pH 5), MN gp120 (50 μg/ml in 5 mM maleate buffer, pH 6) or YU2 gp120 (50μg/mL in 10 mM acetate buffer, pH 4.8) were injected at 5 μL/min over one of the EDC/NHS activated flow cell until levels of 1200 (for sCD4), 700 (for mAb 17b), 3000 (for streptavidin), or 4500 (for gp120s) response units (RU) were achieved. HS (1 mM in phosphate-buffered saline) was biotinylated through its reducing end by reductive amination with 10 mM of biotin-LC-Hydrazine (Pierce) and captured on the streptavidin surface (20 μg/mL in 10 mM Hepes buffer pH 7.4 and 0.3 M NaCl) to a level of 60–80 RU as described. Surfaces were then blocked with 1M ethanolamine (pH 8.5) for 5 minutes.
(§3) CD4, mAb 17b and gp120 surfaces were regenerated by 1 min injection of 10 mM HCl and the HS surface was regenerated with a 1 min injection of 0.05% SDS followed by a 3 min injection of 2 M NaCl.
(§4) In order to evaluate the potential anti-viral properties of cinnamon, we first underwent a series of biochemical binding experiments using surface plasmon resonance. […]

[3] = target: T3, MN gp120 (X4-tropic) (Human immunodeficiency virus type 1 group M subtype B, UniProt P05877); assay type: binding, HIV-1; details: SPR, 0 to 25 μM injected
T3 construct: MN gp120 (50 μg/ml in 5 mM maleate buffer, pH 6); purchased Immunodiagnostics (Massachusetts, USA)
Protocol: as §2, §3, §4

[4] = test system: HIV-1 LAI (B-X4); assay: PBMC antiviral assay (RT activity), HIV-1 LAI; assay type: cell-based; details: Human immunodeficiency virus 1, PBMC, 168 h; PHA-P-activated PBMCs, 125 TCID50, day 7, RT activity
Protocol: (§5) In order to confirm antiretroviral activity of the compounds, using a cell model closer to the pathophysiology, Peripheral Blood Mononuclear Cells (PBMCs) were separated from a buffy-coat from healthy HIV-, HCV-, HBV-seronegative blood donors by Ficoll-Hypaque density gradient centrifugation. The PBMCs were activated by incubation with 1 μg/ml phytohemagglutinin-P (PHA-P; Difco Laboratories) for three days in RPMI 1640 medium supplemented with 10% heat-inactivated fetal calf serum (FCS, +56 ◦C for 45 min), 2mM l-glutamine and a 1% antibiotic cocktail (penicillin, streptomycin, neomycin). After this mitogen activation, PBMCs were cultivated in the same culture medium supplemented with recombinant human interleukin-2 (rHuIL-2; 20 IU/mL) and treated and/or infected. […] All these viruses were amplified in vitro with PHA-P-activated blood mononuclear cells and 50% tissue culture infectious doses (TCID50) were calculated using Kärber’s formula [37], after limited-dilution titration. […] Viral replication was measured by quantifying reverse transcriptase (RT) activity in the cell culture supernatants using the Lenti RT Activity Kit (Cavidi) and AZT was used as reference anti-HIV-1 molecule. EC50 were then calculated and expressed in μM.

[5] = Water solubility; assay type: physicochemical
[6] = test system: HIV-1 NL4-3; assay: MAGI assay, HIV-1 NL4-3; assay type: cell-based; details: Human immunodeficiency virus 1, NL43, MAGI cells
Protocol: (§6) Briefly, target cells (HeLa CD4/CCR5-LTR/β-gal; 10^4/well) were plated in 96-well flat microtiter culture plates. […] The test drugs were added initially and viruses were immediately inoculated onto the cells. Forty-eight hours after viral exposure, all blue cells in each well were counted. The cytotoxicity of the compound was determined by the MTT method as previously described. All experiments were performed in triplicate and AZT was used as reference anti-HIV-1 molecule.

[7] = test system: HIV-1 LAI; assay: MAGI assay, HIV-1 LAI; assay type: cell-based; details: Human immunodeficiency virus 1, MAGI cells
Protocol: as §6

[8] = test system: HIV-1 reference strains and clinical isolates; assay: PBMC antiviral assay, whole panel of strains; assay type: cell-based
Protocol: The PBMCs were activated by incubation with 1 μg/ml phytohemagglutinin-P (PHA-P; Difco Laboratories) for three days in RPMI 1640 medium supplemented with 10% heat-inactivated fetal calf serum (FCS, +56 ◦C for 45 min), 2mM l-glutamine and a 1% antibiotic cocktail (penicillin, streptomycin, neomycin). After this mitogen activation, PBMCs were cultivated in the same culture medium supplemented with recombinant human interleukin-2 (rHuIL-2; 20 IU/mL) and treated and/or infected. PBMCs were infected either with the reference lymphotropic (-X4) HIV-1 LAI strain [35], the reference macrophage-tropic (-R5) HIV-1 BaL strain [36] or with 4 different clinical isolates (subtype A, B or C). All these viruses were amplified in vitro with PHA-P-activated blood mononuclear cells and 50% tissue culture infectious doses (TCID50) were calculated using Kärber’s formula [37], after limited-dilution titration. […] Cell supernatants were collected at day 7 post-infection and stored at -20°C. Viral replication was measured by quantifying reverse transcriptase (RT) activity in the cell culture supernatants using the Lenti RT Activity Kit (Cavidi) and AZT was used as reference anti-HIV-1 molecule. EC50 were then calculated and expressed in μM. […]

[9] = test system: Tim-3 expression on CD4+ and CD8+ T cells; assay: Flow cytometry of Tim-3 on T cells of HIV-1-infected PBMCs; assay type: cell-based, human; details: day 9 post infection
Description: PBMCs (1 x 10^6/ml) were infected with 100 TCID50 of various HIV-1 strains (92UG037: primary R5-tropic strain; YU2B and BaL: R5-tropic lab strains, 93BR020: dual-tropic primary isolate; NL4-3: X4-tropic lab strain) and simultaneously treated with a range of concentrations of IND02-trimer in 24-well plates (Greiner) in duplicates. Cells were washed, fixed (4% paraformaldehyde) and stained on several days post infection (1-4-9-13-19) using the following mAbs against PD-1-Brilliant Violet 421, CD3-FITC, Tim-3-PE, CD4-PE-Cy7 (all from Biolegend) and CD8-APC (Miltenyi). Multicolor flow cytometric analyses were performed on a FACS Verse (BD Biosciences).
Fig 5 Reduction of Tim-3 (left) and PD1 (right) expression on HIV-1 and IND02-trimer-treated CD8^+ (A) and CD4^+ (B) T cells. Stimulated PBMCs were simultaneously incubated with 0.4 to 40 μg/ml (0.46–46.3 μM) IND02-trimer and HIV-1 (92UG037, BaL, YU2b, 93BR020 or NL4-3). Up-regulation of Tim-3 (left) and PD-1 (right) on CD8^+ (A) and CD4^+ (B) T cells was impeded by the IND02-trimer, as shown by multicolour FACS analyses of live T cells on day 9 post co-treatment. Experiments were repeated in 4–5 independent experiments with cells from different donors and statistical differences were analyzed by the GraphPad prism software using the unpaired student’s t-test (2-tailed).

[10] = target: T4, MN gp120-CD4 interaction (Human immunodeficiency virus type 1 group M subtype B, UniProt P05877); assay type: binding, HIV-1; details: SPR, immobilized CD4, data not shown
T4 construct: HIV-1 gp120 was injected over the immobilized CD4; purchased Immunodiagnostics (Massachusetts, USA)
Protocol: as §1
(§7) The specific binding responses in resonance unit (RU) for MN- (A) and YU2- (B) gp120 were recorded as a function of time (s). […] The specific binding responses in resonance unit (RU) for MN- (C, E) and YU2- (D, F) gp120 were recorded as a function of time (s), and after each injection, the surface was regenerated by a short pulse of 10 mM HCl.

[11] = target: T5, YU2 gp120-CD4 interaction (Human immunodeficiency virus type 1 group M subtype B, UniProt P35961); assay type: binding, HIV-1; details: SPR, immobilized CD4, data not shown
T5 construct: HIV-1 gp120 was injected over the immobilized CD4; purchased Immunodiagnostics (Massachusetts, USA)
Protocol: as §1, §7

[12] = test system: HIV-1 98IN017 (C-X4); assay: PBMC antiviral assay (RT activity), HIV-1 98IN017; assay type: cell-based; details: Human immunodeficiency virus 1, PBMC, 168 h; PHA-P-activated PBMCs, 125 TCID50, day 7, RT activity
Protocol: as §5

[13] = test system: HIV-1 Ba-L (B-R5); assay: PBMC antiviral assay (RT activity), HIV-1 Ba-L; assay type: cell-based; details: Human immunodeficiency virus 1, BAL, PBMC, 168 h; PHA-P-activated PBMCs, 125 TCID50, day 7, RT activity
Protocol: as §5

[14] = test system: HIV-1 92UG029 (A-X4); assay: PBMC antiviral assay (RT activity), HIV-1 92UG029; assay type: cell-based; details: Human immunodeficiency virus 1, PBMC, 168 h; PHA-P-activated PBMCs, 125 TCID50, day 7, RT activity
Protocol: as §5

[15] = target: T6, MN gp120 binding to heparan sulfate (HS) (Human immunodeficiency virus type 1 group M subtype B, UniProt P05877); assay: biochemical; set-up: species or system HIV-1
T6 construct: MN gp120 (50 μg/ml in 5 mM maleate buffer, pH 6); purchased Immunodiagnostics (Massachusetts, USA)
Protocol: as §2, §3

For `Oc1cc(O)c2c(c1)O[C@@]1(c3ccc(O)c(O)c3)Oc3cc(O)c4c(c3[C@@H]2[C@H]1O)O[C@H](c1ccc(O)c(O)c1)[C@H](O)[C@H]4c1c(O)cc(O)c2c1O[C@H](c1ccc(O)c(O)c1)[C@H](O)C2` [IND02-trimer, cinnamtannin B1], which “concentration from which inhibition of YU2 gp120/CD4 binding to mAb 17b was observed” value [1] is on record?
Its value is no less than 50 µM.

What about the “binding to immobilized YU2 gp120” value [2] of the same molecule?
The value was “gave binding signals”.

And the “binding to immobilized MN gp120” value [3]?
Its value is “gave binding signals”.

And the EC50 [4]?
Its EC50 is 4.6 ± 3 µM.

And the water solubility [5]?
The water solubility was “water-soluble”.

And the EC50 [6]?
The EC50 was 2.8 µg/mL.

What about the EC50 ([6]; 48 h, mean of triplicate ± SD) of the same molecule?
The EC50 was 3.2 ± 1.4 µM.

What about the EC50 [7] of the same molecule?
The EC50 was 3.4 µg/mL.

And the EC50 ([7]; 48 h, mean of triplicate ± SD)?
The EC50 was 3.9 ± 1.6 µM.

What about the EC50 ([8]; Human immunodeficiency virus 1, PBMC, read-out: EC50 over the panel of strains) of the same molecule?
Its EC50 is 0.8 to 7 µM.

What about the “ED50 against a range of clinical isolates from different clades” value ([8]; PBMCs) of the same molecule?
Its value is 1 to 7 µM.

And the “Tim-3 expression on CD8+ T cells versus infected control cells” value ([9]; HIV-1-infected PBMC cultures, 0.4 to 40 μg/ml (0.46–46.3 μM))?
The value was “significantly lower expression”.

What about the “Tim-3 expression on CD4+ T cells versus infected control cells” value ([9]; HIV-1-infected PBMCs) of the same molecule?
Its value is “decreased”.

And the “inhibition of MN envelope binding to CD4” value [10]?
Its value is “did not show a significant inhibition”.

What about the “inhibition of YU2 envelope binding to CD4” value [11] of the same molecule?
Its value is “did not show a significant inhibition”.

What about the EC50 [12] of the same molecule?
Its EC50 is 0.8 µM.

What about the EC50 [13] of the same molecule?
Its EC50 is 6.9 ± 2 µM.

What about the EC50 [14] of the same molecule?
The EC50 was 2.3 µM.

What about the IC50 [15] of the same molecule?
The IC50 was 7.5 ± 3.5 µM.
